{
  "source": "PubChem BioAssay AID1259409",
  "about": "(Chemical Carcinogenesis Research Information System (CCRIS), 2018)",
  "origin": "cited, not measured here",
  "test_system": "rodent chemically induced tumor inhibition, incidence and multiplicity",
  "experiment": "CCRIS tumor inhibitor studies",
  "data": [
    {"molecule": "CC1=C(/C=C/C(C)=C/C=C/C(C)=C/C(=O)Nc2ccc(O)cc2)C(C)(C)CCC1", "values": [
      {"measurement": "tumour outcome (control, treated, inhibition, significance)", "setting": "Carcinogen: N-METHYL-N-NITROSOUREA, 684-93-5, Dose [Inhibitor]: 2 MMOL/KG DIET DAILY STARTING 12 D AFTER CARCINOGEN TREATMENT THROUGH ABOUT 8 MO AFTER CARCINOGEN DOSE (STUDY DURATION:, Route [Inhibitor]: ORAL, Species: RAT, Strain/Sex: F344/MALE, Target Tissue: Type of Lesion: COLON: ADENOMA, Dose [Carcinogen]: 2.5 MG 1/WK FOR 2 WK, Promoter: NONE USED", "value": "16/39 (41%), 11/30 (37%), 10%, not significant"},
      {"measurement": "tumour outcome (control, treated, inhibition, significance)", "setting": "Carcinogen: N-METHYL-N-NITROSOUREA, 684-93-5, Dose [Inhibitor]: 587 MG/KG DIET FROM D 7-20 AFTER CARCINOGEN ADMINISTRATION THEN REDUCED TO 391 MG/KG DIET FOR REMAINDER OF STUDY (STUDY, Route [Inhibitor]: ORAL, Species: RAT, Strain/Sex: SPRAGUE-DAWLEY/FEMALE, Target Tissue: Type of Lesion: MAMMARY GLAND: ADENOCARCINOMA, Dose [Carcinogen]: 20 MG/KG BW ONCE, Promoter: NONE USED", "value": "64%, 50%, 22%, not significant"},
      {"measurement": "tumour outcome (control, treated, inhibition, significance)", "setting": "Carcinogen: N-METHYL-N-NITROSOUREA, 684-93-5, Dose [Inhibitor]: 587 MG/KG IN DIET FROM D 7-20 AFTER CARCINOGEN DOSE THEN REDUCED TO 391 MG/KG IN DIET FOR REMAINDER OF STUDY (STUDY DURA, Route [Inhibitor]: ORAL, Species: RAT, Strain/Sex: SPRAGUE-DAWLEY/FEMALE, Target Tissue: Type of Lesion: MAMMARY GLAND: ADENOCARCINOMA, Dose [Carcinogen]: 20 MG/KG BW ONCE, Promoter: NONE USED", "value": "64%, 50%, 22%, not significant"},
      {"measurement": "tumour outcome (control, treated, inhibition, significance)", "setting": "Carcinogen: N-METHYL-N-NITROSOUREA, 684-93-5, Dose [Inhibitor]: O.O3 MMOL 3/WK STARTING 12 D THROUGH ABOUT 8 MO AFTER FIRST CARCINOGEN DOSE (STUDY DURATION: APPROXIMATELY 8 MO), Route [Inhibitor]: INTRARECTAL, Species: RAT, Strain/Sex: F344/MALE, Target Tissue: Type of Lesion: COLON: ADENOCARCINOMA, Dose [Carcinogen]: 2.5 MG 1/WK FOR 2 WK, Promoter: NONE USED", "value": "3/39 (8%), 6/39 (15%), -88%, not significant"},
      {"measurement": "tumour outcome (control, treated, inhibition, significance)", "setting": "Carcinogen: N-METHYL-N-NITROSOUREA, 684-93-5, Dose [Inhibitor]: O.O3 MMOL 3/WK STARTING 12 D THROUGH ABOUT 8 MO AFTER FIRST CARCINOGEN DOSE (STUDY DURATION: APPROXIMATELY 8 MO), Route [Inhibitor]: INTRARECTAL, Species: RAT, Strain/Sex: F344/MALE, Target Tissue: Type of Lesion: COLON: ADENOMA, Dose [Carcinogen]: 2.5 MG 1/WK FOR 2 WK, Promoter: NONE USED", "value": "11/39 (28%), 23/39 (59%), -111%, p<0.05"},
      {"measurement": "tumour outcome (control, treated, inhibition, significance)", "setting": "Carcinogen: N-METHYL-N-NITROSOUREA, 684-93-5, Dose [Inhibitor]: O.O3 MMOL 3/WK STARTING 15 D PRIOR TO THROUGH ABOUT 8 MO AFTER FIRST CARCINOGEN DOSE (STUDY DURATION: APPROXIMATELY 8 MO, Route [Inhibitor]: INTRARECTAL, Species: RAT, Strain/Sex: F344/MALE, Target Tissue: Type of Lesion: COLON: ADENOCARCINOMA, Dose [Carcinogen]: 2.5 MG 1/WK FOR 2 WK, Promoter: NONE USED", "value": "3/39 (8%), 5/39 (13%), -63%, not significant"},
      {"measurement": "tumour outcome (control, treated, inhibition, significance)", "setting": "Carcinogen: N-METHYL-N-NITROSOUREA, 684-93-5, Dose [Inhibitor]: O.O3 MMOL 3/WK STARTING 15 D PRIOR TO THROUGH ABOUT 8 MO AFTER FIRST CARCINOGEN DOSE (STUDY DURATION: APPROXIMATELY 8 MO, Route [Inhibitor]: INTRARECTAL, Species: RAT, Strain/Sex: F344/MALE, Target Tissue: Type of Lesion: COLON: ADENOMA, Dose [Carcinogen]: 2.5 MG 1/WK FOR 2 WK, Promoter: NONE USED", "value": "11/39 (28%), 14/39 (36%), -29%, not significant"},
      {"measurement": "tumour outcome (control, treated, inhibition, significance)", "setting": "Carcinogen: N-METHYL-N-NITROSUREA, 684-93-5, Dose [Inhibitor]: 0, 782 MG/KG OF CASEIN BASED AIN-76A DIET FOR DURATION OF STUDY BEGINNING 7 D PRIOR TO CARCINOGEN DOSE (STUDY DURATION:, Route [Inhibitor]: ORAL, Species: RAT, Strain/Sex: F344/FEMALE, Target Tissue: Type of Lesion: MAMMARY GLAND: TUMOR, Dose [Carcinogen]: 45 MG/KG BW ONCE AT 50 D OF AGE, Promoter: NONE USED", "value": "18/25 (72%), 21/25 (84%), -17%, not significant"},
      {"measurement": "tumour outcome (control, treated, inhibition, significance)", "setting": "Carcinogen: N-NITROSOBIS(2-OXOPROPLYL)AMINE [60599-38-4], DL-ETHIONINE [67-21-0], L-METHIONINE [63-68-3], Carcinogen: N-NITROSOBIS(2-OXOPROPLYL)AMINE [60599-38-4], DL-ETHIONINE [67-21-0], L-METHIONINE [63-68-3], Dose [Inhibitor]: 0, 0.0015% IN DIET FOR 55 D BEGINNING ON DAY 50, 1 WK POST LAST CARCINOGEN DOSE (STUDY DURATION: 105 D), Route [Inhibitor]: ORAL, Species: HAMSTER, Target Tissue: Type of Lesion: LIVER: INTRAHEPATIC CHOLANGIOCARCINOMA, Dose [Carcinogen]: 50 MG/KG BOP ONCE ON DAY 0, THEN 20 MG/KG TWICE ON DAYS 18 AND 32, 500 MG/KG DL-ETHIONINE 1X/D FOR 4 D BEGINNING ON DAY, Dose [Carcinogen]: 50 MG/KG BOP ONCE ON DAY 0, THEN 20 MG/KG TWICE ON DAYS 18 AND 32, 500 MG/KG DL-ETHIONINE 1X/D FOR 4 D BEGINNING ON DAY, Promoter: CHOLINE-DEFICIENT DIET", "value": "7/17 (41%), 8/16 (50%), -22%, not significant"},
      {"measurement": "tumour outcome (control, treated, inhibition, significance)", "setting": "Carcinogen: N-NITROSOBIS(2-OXOPROPLYL)AMINE [60599-38-4], DL-ETHIONINE [67-21-0], L-METHIONINE [63-68-3], Carcinogen: N-NITROSOBIS(2-OXOPROPLYL)AMINE [60599-38-4], DL-ETHIONINE [67-21-0], L-METHIONINE [63-68-3], Dose [Inhibitor]: 0, 0.0015% IN DIET FOR 55 D BEGINNING ON DAY 50, 1 WK POST LAST CARCINOGEN DOSE (STUDY DURATION: 105 D), Route [Inhibitor]: ORAL, Species: HAMSTER, Target Tissue: Type of Lesion: PANCREATIC DUCT, CARCINOMA, Dose [Carcinogen]: 50 MG/KG BOP ONCE ON DAY 0, THEN 20 MG/KG TWICE ON DAYS 18 AND 32, 500 MG/KG DL-ETHIONINE 1X/D FOR 4 D BEGINNING ON DAY, Dose [Carcinogen]: 50 MG/KG BOP ONCE ON DAY 0, THEN 20 MG/KG TWICE ON DAYS 18 AND 32, 500 MG/KG DL-ETHIONINE 1X/D FOR 4 D BEGINNING ON DAY, Promoter: CHOLINE-DEFICIENT DIET", "value": "17/17 (100%), 15/16 (94%), 6%, not significant"},
      {"measurement": "tumour outcome (control, treated, inhibition, significance)", "setting": "Carcinogen: N-NITROSOBIS(2-OXOPROPLYL)AMINE [60599-38-4], DL-ETHIONINE [67-21-0], L-METHIONINE [63-68-3], Carcinogen: N-NITROSOBIS(2-OXOPROPLYL)AMINE [60599-38-4], DL-ETHIONINE [67-21-0], L-METHIONINE [63-68-3], Dose [Inhibitor]: 0, 0.004% IN DIET FOR 55 D BEGINNING ON DAY 50, 1 WK POST LAST CARCINOGEN DOSE (STUDY DURATION: 105 D), Route [Inhibitor]: ORAL, Species: HAMSTER, Target Tissue: Type of Lesion: LIVER: INTRAHEPATIC CHOLANGIOCARCINOMA, Dose [Carcinogen]: 50 MG/KG BOP ONCE ON DAY 0, THEN 20 MG/KG TWICE ON DAYS 18 AND 32, 500 MG/KG DL-ETHIONINE 1X/D FOR 4 D BEGINNING ON DAY, Dose [Carcinogen]: 50 MG/KG BOP ONCE ON DAY 0, THEN 20 MG/KG TWICE ON DAYS 18 AND 32, 500 MG/KG DL-ETHIONINE 1X/D FOR 4 D BEGINNING ON DAY, Promoter: CHOLINE-DEFICIENT DIET", "value": "7/17 (41%), 13/19 (68%), -68%, not significant"},
      {"measurement": "tumour outcome (control, treated, inhibition, significance)", "setting": "Carcinogen: N-NITROSOBIS(2-OXOPROPLYL)AMINE [60599-38-4], DL-ETHIONINE [67-21-0], L-METHIONINE [63-68-3], Carcinogen: N-NITROSOBIS(2-OXOPROPLYL)AMINE [60599-38-4], DL-ETHIONINE [67-21-0], L-METHIONINE [63-68-3], Dose [Inhibitor]: 0, 0.004% IN DIET FOR 55 D BEGINNING ON DAY 50, 1 WK POST LAST CARCINOGEN DOSE (STUDY DURATION: 105 D), Route [Inhibitor]: ORAL, Species: HAMSTER, Target Tissue: Type of Lesion: PANCREATIC DUCT, CARCINOMA, Dose [Carcinogen]: 50 MG/KG BOP ONCE ON DAY 0, THEN 20 MG/KG TWICE ON DAYS 18 AND 32, 500 MG/KG DL-ETHIONINE 1X/D FOR 4 D BEGINNING ON DAY, Dose [Carcinogen]: 50 MG/KG BOP ONCE ON DAY 0, THEN 20 MG/KG TWICE ON DAYS 18 AND 32, 500 MG/KG DL-ETHIONINE 1X/D FOR 4 D BEGINNING ON DAY, Promoter: CHOLINE-DEFICIENT DIET", "value": "17/17 (100%), 19/19 (100%), 0%, not significant"},
      {"measurement": "tumour outcome (control, treated, inhibition, significance)", "setting": "Carcinogen: N-NITROSOBIS(2-OXOPROPLYL)AMINE [60599-38-4], DL-ETHIONINE [67-21-0], L-METHIONINE [63-68-3], Carcinogen: N-NITROSOBIS(2-OXOPROPLYL)AMINE [60599-38-4], DL-ETHIONINE [67-21-0], L-METHIONINE [63-68-3], Dose [Inhibitor]: 0, 0.01% IN DIET FOR 55 D BEGINNING ON DAY 50, 1 WK POST LAST CARCINOGEN DOSE (STUDY DURATION: 105 D), Route [Inhibitor]: ORAL, Species: HAMSTER, Target Tissue: Type of Lesion: LIVER: INTRAHEPATIC CHOLANGIOCARCINOMA, Dose [Carcinogen]: 50 MG/KG BOP ONCE ON DAY 0, THEN 20 MG/KG TWICE ON DAYS 18 AND 32, 500 MG/KG DL-ETHIONINE 1X/D FOR 4 D BEGINNING ON DAY, Dose [Carcinogen]: 50 MG/KG BOP ONCE ON DAY 0, THEN 20 MG/KG TWICE ON DAYS 18 AND 32, 500 MG/KG DL-ETHIONINE 1X/D FOR 4 D BEGINNING ON DAY, Promoter: CHOLINE-DEFICIENT DIET", "value": "7/17 (41%), 14/17 (82%), -100%, p<0.05"}
    ]}
  ]
}
